# Measurements taken from paper PMC4649711, “In1-ghrelin splicing variant is overexpressed in pituitary adenomas and increases their aggressive features” (Scientific Reports, 2015).
# Where “and” joins values, the source holds several entries; their conditions need not be identical. Equal entries are not always repeated.
# Legend:
# [1] = tested on: ACTH-omas (tumoral pituitary cells); experiment: free cytosolic calcium kinetics ([Ca^2+]i), ACTH-oma cells; format: cell-based, human
# Protocol: (§1) Pituitary adenoma specimens were dispersed into single cells by enzymatic and mechanical disruption and cultured onto tissue culture plates in serum containing medium, as previously described. Briefly, pituitary samples were resected by endoscopic transsphenoidal surgery and transferred to sterile cold (4°C) culture medium (S-MEM, Gibco, Madrid, Spain) supplemented with 0.1% BSA, 0.01% L-glutamine, 1% antibiotic-antimycotic solution, and 2.5% HEPES. Samples were minced under sterile conditions into 1–2 mm^3 pieces. Some pieces were stored at −80°C for posterior RNA isolation and, when possible, the remaining tissue samples were washed and incubated in 30 mL S-MEM medium supplemented 0.3% trypsin (Beckson, Dickinson and Company, Sparks, MD, USA) in a spinner flask (Bellco Glass, Vineland, NJ, USA) for 2 h of gentle shaking at 37°C and then, incubation was continued for another 5 min in presence of 1 mg of DNAse I (Roche, Mannheim, Germany). Dispersed cells were decanted by centrifugation and then, by repeated aspiration into a smoothtipped glass Pasteur pipette. […]
# As previously reported, changes in [Ca^2+]i in single cells were measured using fura-2AM (50,000 cells/coverslip; Molecular Probes, Eugene, OR)[23][30]. […] Cells were examined for changes in [Ca^2+]i after the appropriate treatment (native ghrelin, In1-19 or In1-40) using a 40× objective with Immersion Oil Type NF (Nikon, Tokyo, Japan) while exposed to alternating 340–380 nm light beams, and the intensity of light emission at 505 nm was measured every 5 seconds using MetaFluor Software (Imaging Corp., West Chester, PA, USA). […] Changes in [Ca^2+]i in CHO-K1 cell line expressing recombinant GHSR1a or GHSR1b receptor were measured using Calcium 4 Explorer Kit (Molecular Devices, Sunnyvale, CA, USA). […] Fluorescent signals were then monitored using the FLIPR Tetra (Molecular Devices, Sunnyvale, CA, USA) during which cells were stimulated with compounds. Dose-response curves were analyzed using GraphPad Prism v5.04 (La Jolla, CA, USA).
# AtT-20 cell line = experiment: ACTH secretion from AtT-20 cell line; format: cell-based, mouse; conditions: 4 h, 3–5 independent experiments
# Protocol: The mouse corticotroph pituitary derived cell line AtT-20/D16v-F2 (ATCC® CRL-1795) was cultured and maintained in Dulbecco's Modified Eagle's Medium (DMEM) complemented with 10% FBS, 100 U/ml penicillin/streptomycin, 0.024 M of 2-(4(2-hydroxyethyl)-1-piperazine)-ethane sulfonic acid (HEPES), and maintained at 37°C and 5% CO2, under sterile conditions. CHO-K1 cell line(ATCC® CCL-61) expressing recombinant human GHSR1a (GenBank accession number U60179) or GHSR1b (GenBank accession number U60181) were cultured and maintained in Ham's F12 media (Corning #10-080-CV) supplemented with 10% FBS, 2 mM L-Glutamine and 0.4 mg/mL Geneticin.
# To examine the effects of ghrelin system components (4- and/or 24 h-incubation) on pituitary hormone release from primary pituitary adenoma and/or AtT-20 cell line, 100,000–200,000 cell/well were used. As previously reported, hormone concentrations were measured in the culture media derived from human samples according to the pituitary adenoma type using commercial ELISAs [growth hormone, GH; adrenocorticotropin, ACTH; and prolactin, PRL (reference numbers: EIA-3552, EIA-3647 and EIA-1291, respectively; DRG, Mountainside, NJ, USA)] following the manufacturer's instructions. All the information regarding specificity, detectability, and reproducibility for each of the assays can be accessed at the web site of the company.
# GH-omas = experiment: apoptotic rate in GH-omas; format: cell-based, human; conditions: 100 nM, 12–14 h, Annexin V/Propidium Iodide, flow cytometry, n = 3
# Protocol: as §1, with “pipette. Cells suspensions were washed once in 4.5 g/L glucose containing DMEM medium (Gibco, Madrid, Spain) supplemented with 0.1% BSA, 0.01% L-glutamine, 1% antibiotic-antimycotic solution, and 2.5% HEPES.” for “pipette.”
# ACTH-omas = tested on: ACTH-omas; parameters: method as in PMID 17280594; conditions: previous data; cited from earlier work
# [2] = tested on: rat pituitary somatotrope cell lines; parameters: method as in PMID 15296479; conditions: cited from earlier work
compound,measurement,setting,value
CCCCCCCC(=O)OC[C@H](NC(=O)[C@H](CO)NC(=O)CN)C(=O)N[C@@H](Cc1ccccc1)C(=O)N[C@@H](CC(C)C)C(=O)N[C@@H](CO)C(=O)N1CCC[C@H]1C(=O)N[C@@H](CCC(=O)O)C(=O)N[C@@H](Cc1c[nH]cn1)C(=O)N[C@@H](CCC(N)=O)C(=O)N[C@@H](CCCNC(=N)N)C(=O)N[C@H](C(=O)N[C@@H](CCC(N)=O)C(=O)N[C@@H](CCC(N)=O)C(=O)N[C@@H](CCCNC(=N)N)C(=O)N[C@@H](CCCCN)C(=O)N[C@@H](CCC(=O)O)C(=O)N[C@@H](CO)C(=O)N[C@@H](CCCCN)C(=O)N[C@@H](CCCCN)C(=O)N1CCC[C@H]1C(=O)N1CCC[C@H]1C(=O)N[C@@H](C)C(=O)N[C@@H](CCCCN)C(=O)N[C@@H](CC(C)C)C(=O)N[C@@H](CCC(N)=O)C(=O)N1CCC[C@H]1C(=O)N[C@@H](CCCNC(=N)N)C(=O)O)C(C)C [AG],[Ca^2+]i response (in words),[1]; fura-2AM,doubling the [Ca^2+]i levels
same,% cell resp.,"[1]; proportion of responsive cells, fura-2AM single-cell imaging",74% and 74.1%
same,# samples,"[1]; responsive/tested samples, fura-2AM, 742 / 230 / 143 cells analyzed for AG / In1-19 / In1-40, peptides 100 nM (abstract)",9/9
same,basal ACTH release,AtT-20 cell line,did not significantly alter basal ACTH release
same,apoptotic rate,GH-omas,did not alter apoptotic rate
same,ACTH release,ACTH-omas,able to elicit an effect on ACTH release
same,cell proliferation,[2],can stimulate cell proliferation
